Measured values: patent US12510524B2, “Compositions containing cannabinoid analog conjugates and methods of use” (priority 2014, dated 2025)
Like-named read-outs stand apart in the source and are kept apart here.

What was measured:
[1] = system: EJ DLBCL cancer cell line; assay: MTS cell viability assay, EJ; type: cell-based; conditions: read-out: IC50 on cell viability
Excerpt: (§3) The formazan dye is quantified by measuring the absorbance at 490-500 nm.

[2] = system: CJ DLBCL cancer cell line; assay: MTS cell viability assay, CJ; type: cell-based; conditions: read-out: IC50 on cell viability
Excerpt: as §3

[3] = system: LY19 DLBCL cancer cell line; assay: MTS cell viability assay, LY19; type: cell-based; conditions: for IC50: read-out: IC50 on cell viability
Excerpt: as §3

HF DLBCL cell line = assay: MTS cell viability assay, HF; type: cell-based; conditions: read-out: IC50 on cell viability
Excerpt: as §3

McA DLBCL cell line = assay: MTS cell viability assay, McA; type: cell-based; conditions: 72 h, read-out: IC50 on cell viability
Excerpt: as §3

MS DLBCL cell line = assay: MTS cell viability assay, MS; type: cell-based; conditions: 72 h
Method: (§1) The effects of SR141716 and VYR206 were analyzed. MTS assays for cell viability (72 h incubation) were performed on diffuse large B-cell lymphoma (DLBCL) cells—LR, MS, RC and DOHH2 (FIGS. 18A-18D) and mantle cell lymphoma (MCL) cells—Jeko, Mino, Rec-1 and JMP1 (FIGS. 19A-19D).

LY-10 DLBCL cell line = assay: MTS cell viability assay, LY-10; type: cell-based; conditions: read-out: IC50 on cell viability
Excerpt: as §3

Ly-3 DLBCL cell line = assay: MTS cell viability assay, Ly-3; type: cell-based; conditions: read-out: IC50 on cell viability
Excerpt: as §3

LP DLBCL cell line = assay: MTS cell viability assay, LP; type: cell-based; conditions: read-out: IC50 on cell viability
Excerpt: as §3

LR DLBCL cell line = assay: MTS cell viability assay, LR; type: cell-based; conditions: for IC50: read-out: IC50 on cell viability
Method: as §1

HB DLBCL cell line = assay: MTS cell viability assay, HB; type: cell-based; conditions: read-out: IC50 on cell viability
WP DLBCL cell line = assay: MTS cell viability assay, WP; type: cell-based; conditions: read-out: IC50 on cell viability
DLBCL cancer cell lines = assay: MTS cell viability assay, DLBCL cell lines as a group; type: cell-based; conditions: for IC50: read-out: Average IC50
Method: as §1

RC DLBCL cell line = assay: MTS cell viability assay, RC; type: cell-based; conditions: drug concentration 50 μM, 72 h
Method: as §1

DOHH2 DLBCL cell line = assay: MTS cell viability assay, DOHH2; type: cell-based; conditions: Homo sapiens, DOHH-2, 72 h
Method: as §1

[4] = system: diffuse large B-cell lymphoma (DLBCL; 16 cancer cell lines); assay: Cell viability, 16 DLBCL cancer cell lines (Example 6); type: cell-based; conditions: 16 DLBCL cell lines; compared with VYR206; FIG. 17A
Method: (§2) In Examples 6-8, N4-conjugated compounds were analyzed. The effects of CBi inverse agonist SR141716 and its conjugated form-VYR206 were analyzed using diffuse large B-cell lymphoma (DLBCL; 16 cancer cell lines; FIGS. 17A and 17B) and mantle cell lymphoma (MCL; 8 cell lines; FIGS. 17C and 17D) cancer cells. […] Diffuse large B-cell lymphoma cancer cells were resistant to lower VYR206 concentration (<50 μM) (FIG. 17B). […] Rimonabant by itself has severe adverse effects in patients with high or chronic dosing. Curtailing or modifying the potency may help to reduce adverse effects while still providing a therapeutic effect against cancerous cells.

[5] = system: mantle cell lymphoma (MCL; 8 cell lines); assay: Cell viability, 8 MCL cell lines (Example 6); type: cell-based; conditions: lower-dose 10-40 μM; steep initial slopes especially in Rec-1 and SP-53; FIG. 17C
Method: as §2

[6] = system: U2932 DLBCL cancer cell line
Excerpt: as §3

cleaved PARP in RC cells = assay: Immunoblot of apoptosis induction in RC cells; type: cell-based; conditions: 6.25, 12.5, 25 and 50 μM, 24 hrs

## Cc1c(C(=O)NN2CCCCC2)nn(-c2ccc(Cl)cc2Cl)c1-c1ccc(Cl)cc1 [SR141716, N-(Piperidin-1-yl)-5-(4-chlorophenyl)-1-(2,4-dichlorophenyl)-4-methyl-1H-pyrazole-3-carboxamide]
[1]; 72 h
  IC50: 20.6 µM
[2]; 72 h
  IC50: 13.5 µM
[3]; 72 h
  IC50: 15.2 µM
[3]; LY19, MTS, 72 h incubation
  effect on viability, comparison between cell lines: more potent effect on LY19
HF DLBCL cell line; 72 h
  IC50: 32.7 µM
McA DLBCL cell line
  IC50: 21.8 µM
MS DLBCL cell line; read-out: IC50 on cell viability
  IC50: 23.7 µM
MS DLBCL cell line; MS, drug concentration 50 μM, MTS
  induction of cell death: < 90%
LY-10 DLBCL cell line; LY10, 72 h
  IC50: 25.1 µM
Ly-3 DLBCL cell line; 72 h
  IC50: 25.2 µM
LP DLBCL cell line; 72 h
  IC50: 27.1 µM
LR DLBCL cell line; 72 h
  IC50: 30.9 µM
LR DLBCL cell line; LR, drug concentration 50 μM, MTS, 72 h
  induction of cell death: < 90%
HB DLBCL cell line; 72 h
  IC50: 29.4 µM
WP DLBCL cell line; 72 h
  IC50: 25.5 µM
DLBCL cancer cell lines; EJ, U2932, CJ and LY19, MTS, 72 h incubation, FIGS. 13-16
  effect on the viability of DLBCL cancer cell lines: significant results depending on the specific cell line
DLBCL cancer cell lines; LR, MS, RC and DOHH2, MTS, 72 h
  effectiveness on DLBCL, comparison of the two drugs: more effective to DLBCL than VYR206
DLBCL cancer cell lines
  IC50: 24.4 µM
RC DLBCL cell line
  induction of cell death: < 90%
DOHH2 DLBCL cell line
  inhibition at 50 µM: > 50%
[4]
  cell viability of DLBCL: markedly decreased viability
[5]
  cell viability in MCL cell lines: reduction of cell viability
[6]
  IC50: 26.2 µM

## C=C(C)[C@@H]1CCC(C)=C[C@H]1c1c(O)cc(CCCCC)cc1OCCCN1CCCNCCNCCCNCC1 [VYC203, N4-Cannabidiol]
Cleaved PARP in RC cells
  cleaved PARP expression: Concentration-dependent increase

## C=CC(=O)N1CCC[C@@H](n2nc(-c3ccc(Oc4ccccc4)cc3)c3c(N)ncnc32)C1 [ibrutinib]
[1]; EJ, MTS, 72 h incubation
  IC50: 30 µM
[2]; CJ, MTS, 72 h incubation
  IC50: 25 µM
[3]; LY19, MTS, 72 h incubation
  IC50: 10 µM
HF DLBCL cell line; HF, MTS, 72 h incubation
  IC50: 18 µM
LY-10 DLBCL cell line; LY10, LY-10, MTS, 72 h incubation
  IC50: 0.5 µM
Ly-3 DLBCL cell line; Ly-3, MTS, 72 h incubation
  IC50: 20 µM
LP DLBCL cell line; LP, MTS, 72 h incubation
  IC50: 6 µM
LR DLBCL cell line; LR, MTS, 72 h incubation
  IC50: 20 µM
HB DLBCL cell line; HB, MTS, 72 h incubation
  IC50: 20 µM
WP DLBCL cell line; WP, MTS, 72 h incubation
  IC50: 1 µM
DLBCL cancer cell lines; average over the 13 DLBCL cell lines of Table 5
  IC50: 15.8 µM
[6]
  IC50: 15 µM
